From patent US20120115724A1, “METHOD OF CONTROLLING UNDESIRED VEGETATION” (SYNGENTA CROP PROTECTION LLC, priority 2009, published 2012)

Key:
Type in all cases: in vivo
[1] = test system: EPHHL Euphorbia heterophylla; test: Pre-emergence crop and weed test (Example 16); conditions: after 20 days
Protocol: (§1) Seeds of crop and representative weed species were sown in standard soil in pots. After cultivation for 1 day under controlled conditions in a glasshouse (at 22/16° C., day/night; 16 hours light; 65% humidity), the plants were sprayed. The spray solution was prepared by dissolving the technical active ingredient in acetone containing 10.56 wt % Emulsogen EL, 42.22 wt % N-methylpyrrolidone and 2.22 wt % DPG-monoethyl ether to give a 5% stock solution. This was then diluted with water containing 0.2% (v/v) of the adjuvant X-77 to give the desired treatment concentration.
(§2) The test plants were then grown on under controlled conditions in a glasshouse (at 22/16° C., day/night; 16 hours light; 65% humidity) and watered twice daily. After 20 days the test was evaluated (100=total damage to plant; 0=no damage to plant).
(§3) Species as for Post-Emergence Test.

[2] = test system: IPOHE Ipomoea hederacea; test: Pre-emergence crop and weed test (Example 16); conditions: after 20 days
Protocol: as §1, §2, §3

[3] = test system: ABUTH Abutilon theophrasti; test: Pre-emergence crop and weed test (Example 16); conditions: after 20 days
Protocol: as §1, §2, §3

[4] = test system: XANST Xanthium strumarium; test: Pre-emergence crop and weed test (Example 16); conditions: after 20 days
Protocol: as §1, §2, §3

[5] = test system: GALAP Galium aparine; test: Pre-emergence crop and weed test (Example 16); conditions: after 20 days
Protocol: as §1, §2, §3

[6] = test system: SINAR Sinapis arvensis; test: Pre-emergence crop and weed test (Example 16); conditions: after 20 days
Protocol: as §1, §2, §3

[7] = test system: GLXMA Soybean; test: Pre-emergence crop and weed test (Example 16); conditions: after 20 days
Protocol: as §1, §2, §3

[8] = test system: CHEAL Chenopodium album; test: Pre-emergence crop and weed test (Example 16); conditions: after 20 days
Protocol: as §1, §2, §3

[9] = test system: AMARE Amaranthus retroflexus; test: Pre-emergence crop and weed test (Example 16); conditions: after 20 days
Protocol: as §1, §2, §3

[10] = test system: KCHSC Kochia scoparia; test: Pre-emergence crop and weed test (Example 16); conditions: after 20 days
Protocol: as §1, §2, §3

[11] = test system: SIDSP Sida spinosa; test: Pre-emergence crop and weed test (Example 16); conditions: after 20 days
Protocol: as §1, §2, §3

[12] = test system: POLCO Polygonum convolvulus; test: Pre-emergence crop and weed test (Example 16); conditions: after 20 days
Protocol: as §1, §2, §3

[13] = test system: EPHHL Euphorbia heterophylla; test: Post-emergence crop and weed test (Example 15); conditions: 360 h, after 15 days, read-out: Percentage damage EPHHL
Method in brief: (§4)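 Scoring: percent damage at 15 days after treatment, where 100 means total damage and 0 no damage. Treatment was a foliar spray of 14-day-old potted plants, using active ingredient diluted from a 5% acetone-based emulsifiable stock into water containing 0.2% X-77 adjuvant.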

[14] = test system: IPOHE Ipomoea hederacea; test: Post-emergence crop and weed test (Example 15); conditions: 360 h, after 15 days, read-out: Percentage damage IPOHE
Method in brief: as §4

[15] = test system: ABUTH Abutilon theophrasti; test: Post-emergence crop and weed test (Example 15); conditions: 360 h, after 15 days, read-out: Percentage damage ABUTH
Method in brief: as §4

[16] = test system: XANST Xanthium strumarium; test: Post-emergence crop and weed test (Example 15); conditions: 360 h, after 15 days, read-out: Percentage damage XANST
Method in brief: as §4

[17] = test system: GALAP Galium aparine; test: Post-emergence crop and weed test (Example 15); conditions: 360 h, after 15 days, read-out: Percentage damage GALAP
Method in brief: as §4

[18] = test system: SINAR Sinapis arvensis; test: Post-emergence crop and weed test (Example 15); conditions: Mutarda arvensis, 360 h, after 15 days, read-out: Percentage damage SINAR
Method in brief: as §4

[19] = test system: GLXMA Soybean; test: Post-emergence crop and weed test (Example 15); conditions: Glycine max, 360 h, after 15 days, read-out: Percentage damage GLXMA
Method in brief: as §4

[20] = test system: AMARE Amaranthus retroflexus; test: Post-emergence crop and weed test (Example 15); conditions: 360 h, after 15 days, read-out: Percentage damage AMARE
Method in brief: as §4

[21] = test system: KCHSC Kochia scoparia; test: Post-emergence crop and weed test (Example 15); conditions: Bassia scoparia, 360 h, after 15 days, read-out: Percentage damage KCHSC
Method in brief: as §4

[22] = test system: SIDSP Sida spinosa; test: Post-emergence crop and weed test (Example 15); conditions: 360 h, after 15 days, read-out: Percentage damage SIDSP
Method in brief: as §4

[23] = test system: POLCO Polygonum convolvulus; test: Post-emergence crop and weed test (Example 15); conditions: Fallopia convolvulus, 360 h, after 15 days, read-out: Percentage damage POLCO
Method in brief: as §4

[24] = test system: CHEAL Chenopodium album; test: Post-emergence crop and weed test (Example 15); conditions: 360 h, after 15 days, read-out: Percentage damage CHEAL
Method in brief: as §4

[25] = test system: VERPE Veronica persica; test: Post-emergence crop and weed test (Example 15); conditions: 360 h, after 15 days, read-out: Percentage damage VERPE
Method in brief: as §4

## C=Cc1c(N)nc(-c2ccc(Cl)c(OC)c2F)nc1C(=O)OC [Compound 2, 4-Amino-2-(4-chloro-2-fluoro-3-methoxy-phenyl)-5-ethenyl-6-methoxy-carbonyl-pyrimidine]
[1]; 15 g/ha
  Percentage damage EPHHL: 100%
[2]; 15 g/ha
  Percentage damage IPOHE: 30%
[3]; 15 g/ha
  Percentage damage ABUTH: 40%
[4]; 15 g/ha
  Percentage damage XANST: 0%
[5]; 15 g/ha
  Percentage damage GALAP: 100%
[6]; 15 g/ha
  Percentage damage SINAR: 30%
[7]; 15 g/ha
  Percentage damage GLXMA: 20%
[8]; 15 g/ha
  Percentage damage CHEAL: 70%
[9]; 15 g/ha
  Percentage damage AMARE: 40%
[10]; 15 g/ha
  Percentage damage KCHSC: 100%
[11]; 15 g/ha
  Percentage damage SIDSP: 80%
[12]; 15 g/ha
  Percentage damage POLCO: 20%
[13]
  pest or weed control at 8 g/ha: 90%
[14]
  pest or weed control at 8 g/ha: 90%
[15]
  pest or weed control at 8 g/ha: 80%
[16]
  pest or weed control at 8 g/ha: 90%
[17]; 8 g/ha
  pest or weed control at 8 g/ha: 80%
[18]
  pest or weed control at 8 g/ha: 10%
[19]
  plant injury at 8 g/ha: 60%
[20]
  pest or weed control at 8 g/ha: 80%
[21]; 8 g/ha
  pest or weed control at 8 g/ha: 30%
[22]
  pest or weed control at 8 g/ha: 80%
[23]
  pest or weed control at 8 g/ha: 70%

## COC(=O)c1nc(-c2ccc(Cl)c(OC)c2F)nc(N)c1Cl [Ref. Ex. B, 4-Amino-5-chloro-2-(4-chloro-2-fluoro-3-methoxyphenyl)-6-methoxycarbonyl-pyrimidine, reference compound]
[1]; 15 g/ha
  Percentage damage EPHHL: 80%
[2]; 15 g/ha
  Percentage damage IPOHE: 0%
[3]; 15 g/ha
  Percentage damage ABUTH: 30%
[4]; 15 g/ha
  Percentage damage XANST: 0%
[5]; 15 g/ha
  Percentage damage GALAP: 70%
[6]; 15 g/ha
  Percentage damage SINAR: 80%
[7]; 15 g/ha
  Percentage damage GLXMA: 90%
[8]; 15 g/ha
  Percentage damage CHEAL: 30%
[9]; 15 g/ha
  Percentage damage AMARE: 70%
[10]; 15 g/ha
  Percentage damage KCHSC: 0%
[11]; 15 g/ha
  Percentage damage SIDSP: 40%
[12]; 15 g/ha
  Percentage damage POLCO: 0%
[13]
  pest or weed control at 8 g/ha: 100%
[14]
  pest or weed control at 8 g/ha: 80%
[15]
  pest or weed control at 8 g/ha: 90%
[16]
  pest or weed control at 8 g/ha: 100%
[18]
  pest or weed control at 8 g/ha: 80%
[19]
  plant injury at 8 g/ha: 90%
[24]; 8 g/ha
  pest or weed control at 8 g/ha: 80%
[25]; 8 g/ha
  pest or weed control at 8 g/ha: 80%
[20]
  pest or weed control at 8 g/ha: 100%
[22]
  pest or weed control at 8 g/ha: 70%
[23]
  pest or weed control at 8 g/ha: 80%

## COC(=O)c1nc(-c2ccc(Cl)c(OC)c2F)nc(NCc2ccco2)c1Cl [Ref. Ex. E, 5-Chloro-2-(4-chloro-2-fluoro-3-methoxyphenyl)-4-(furan-2-ylmethylamino)-6-methoxycarbonyl-pyrimidine, reference compound]
[1]; 125 g/ha
  Percentage damage EPHHL: 100%
[2]; 125 g/ha
  Percentage damage IPOHE: 30%
[3]; 125 g/ha
  Percentage damage ABUTH: 40%
[4]; 125 g/ha
  Percentage damage XANST: 20%
[5]; 125 g/ha
  Percentage damage GALAP: 90%
[6]; 125 g/ha
  Percentage damage SINAR: 70%
[7]; 125 g/ha
  Percentage damage GLXMA: 10%
[8]; 125 g/ha
  Percentage damage CHEAL: 30%
[9]; 125 g/ha
  Percentage damage AMARE: 70%
[10]; 125 g/ha
  Percentage damage KCHSC: 60%
[11]; 125 g/ha
  Percentage damage SIDSP: 70%
[12]; 125 g/ha
  Percentage damage POLCO: 0%
[13]; 125 g/ha
  pest or weed control at 125 g/ha: 100%
[14]; 125 g/ha
  pest or weed control at 125 g/ha: 90%
[15]; 125 g/ha
  pest or weed control at 125 g/ha: 100%
[16]; 125 g/ha
  pest or weed control at 125 g/ha: 100%
[17]; 125 g/ha
  pest or weed control at 125 g/ha: 90%
[18]; 125 g/ha
  pest or weed control at 125 g/ha: 90%
[19]; 125 g/ha
  plant injury at 125 g/ha: 100%
[24]; 125 g/ha
  pest or weed control at 125 g/ha: 90%
[25]; 125 g/ha
  pest or weed control at 125 g/ha: 10%
[20]; 125 g/ha
  pest or weed control at 125 g/ha: 100%
[21]; 125 g/ha
  pest or weed control at 125 g/ha: 90%
[22]; 125 g/ha
  pest or weed control at 125 g/ha: 90%
[23]; 125 g/ha
  pest or weed control at 125 g/ha: 90%
